Reference: patent US8158628B2, “Sulfonylated 1,2,3,4-tetrahydropyrrolo[1,2-a]pyrazine compounds and their use as pharmaceuticals” (Gruenenthal GmbH, priority 2009, dated 2012)

Assays:
B1R of the rat = target: T1, B1R of the rat (Rattus norvegicus, UniProt P97583); experiment: FLIPR Ca2+ functional assay, B1R antagonism, rat B1R in CHO K1 cells; assay type: cell-based; conditions: test substance 10 μM; rB1R CHO K1 cells; agonist Des-Arg9 bradykinin at EC80; % of maximum achievable inhibition
T1 construct: expressed in transfected cells; host or cells: CHO K1 cells (Chinese hamster ovary), stably transfected
T1 sequence (P97583 1-337): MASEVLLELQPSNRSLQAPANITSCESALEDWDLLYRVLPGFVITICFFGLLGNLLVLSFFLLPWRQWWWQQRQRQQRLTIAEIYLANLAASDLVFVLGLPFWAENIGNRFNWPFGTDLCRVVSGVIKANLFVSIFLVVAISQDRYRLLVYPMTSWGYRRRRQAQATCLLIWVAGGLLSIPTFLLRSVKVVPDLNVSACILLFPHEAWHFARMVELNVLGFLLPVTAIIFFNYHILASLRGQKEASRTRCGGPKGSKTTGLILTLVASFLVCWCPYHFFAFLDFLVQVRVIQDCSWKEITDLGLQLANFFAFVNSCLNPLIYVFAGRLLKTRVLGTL
Summary of the method: (§1)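 Stably transfected CHO K1 cells loaded with Fluo-4; Ca2+ fluorescence read on FLIPR (ex 488/em 540 nm). Compound preincubated 10-20 min, then agonist at EC80: Lys-Des-Arg9 bradykinin (human) or Des-Arg9 bradykinin (rat). % inhibition vs maximal inhibition; IC50 from concentration series, n=2-3, N>=2.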

human B1R = target: T2, human B1R (Homo sapiens, UniProt P46663); experiment: FLIPR Ca2+ functional assay, B1R antagonism, human B1R in CHO K1 cells; assay type: cell-based; conditions: test substance 10 μM; hB1R CHO K1 cells; agonist Lys-Des-Arg9 bradykinin at EC80; % of maximum achievable inhibition
T2 construct: expressed in transfected cells; host or cells: CHO K1 cells (Chinese hamster ovary), stably transfected
T2 sequence (P46663 1-353): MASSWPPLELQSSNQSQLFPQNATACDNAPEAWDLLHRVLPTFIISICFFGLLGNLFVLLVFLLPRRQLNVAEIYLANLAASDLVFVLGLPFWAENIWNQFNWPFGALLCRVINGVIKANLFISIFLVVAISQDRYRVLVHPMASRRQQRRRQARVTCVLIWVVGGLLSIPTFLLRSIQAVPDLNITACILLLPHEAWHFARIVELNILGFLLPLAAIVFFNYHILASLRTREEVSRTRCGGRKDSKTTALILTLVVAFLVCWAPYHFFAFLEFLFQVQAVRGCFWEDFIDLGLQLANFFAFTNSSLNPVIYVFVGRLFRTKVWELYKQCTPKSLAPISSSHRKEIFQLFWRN
Summary of the method: as §1

Row | Compound | inhibition at 10 µM (B1R of the rat) [%] | inhibition at 10 µM (human B1R) [%]
1 | COc1cc(C)c(S(=O)(=O)N2CCn3cccc3C2CC(=O)NC2CCNCC2(C)C)c(C)c1 (stereo not shown) [Example 17, N-(3,3-Dimethylpiperidin-4-yl)-2-(2-(4-methoxy-2,6-dimethylphenylsulfonyl)-1,2,3,4-tetrahydropyrrolo[1,2-a]pyrazin-1-yl)acetamide] | 99.2 | 97.4
2 | CC(C)(C)NCc1ccc2c(c1)CCC(NC(=O)CC1c3cccn3CCN1S(=O)(=O)c1cccc(C(F)(F)F)c1)C2 (stereo not shown) [Example 64, N-[6-[(tert-Butylamino)-methyl]-1,2,3,4-tetrahydro-naphthalen-2-yl]-2-[2-[[3-(trifluoromethyl)phenyl]sulfonyl]-1,2,3,4-tetrahydro-pyrrolo[1,2-a]pyrazin-1-yl]-acetamide] | 102 | 99.9
3 | O=C(CC1c2cccn2CCN1S(=O)(=O)c1cccc(C(F)(F)F)c1)NC1CCCc2cc(CN3CCCc4ccccc43)ccc21 (stereo not shown) [Example 90, N-[6-(1,2,3,4-Tetrahydro-quinolin-1-yl-methyl)-1,2,3,4-tetrahydro-naphthalen-1-yl]-2-[2-[[3-(trifluoromethyl)phenyl]sulfonyl]-1,2,3,4-tetrahydro-pyrrolo[1,2-a]pyrazin-1-yl]-acetamide] | 51.4 | 54.6
4 | COc1ccc2cc(S(=O)(=O)N3CCn4cccc4C3CC(=O)N(C)C3CCc4cc(CN5CCCCC5)ccc4C3)ccc2c1 (stereo not shown) [Example 43, 2-[2-[(6-Methoxy-naphthalen-2-yl)sulfonyl]-1,2,3,4-tetrahydro-pyrrolo[1,2-a]pyrazin-1-yl]-N-methyl-N-[6-(piperidin-1-yl-methyl)-1,2,3,4-tetrahydro-naphthalen-2-yl]-acetamide] | 103 | 99.5
5 | COc1ccc2cc(S(=O)(=O)N3CCn4cccc4C3CC(=O)NC3CCc4cc(CNCc5ccccc5)ccc4C3)ccc2c1 (stereo not shown) [Example 101, N-[6-[(Benzylamino)-methyl]-1,2,3,4-tetrahydro-naphthalen-2-yl]-2-[2-[(6-methoxy-naphthalen-2-yl)sulfonyl]-1,2,3,4-tetrahydro-pyrrolo[1,2-a]pyrazin-1-yl]-acetamide] | 103 | 99.9
6 | O=C(CC1c2cccn2CCN1S(=O)(=O)c1cccc(Cl)c1Cl)NC1CCc2cc(CN3CCCCC3)ccc2C1 (stereo not shown) [Example 28, 2-(2-(2,3-dichlorophenylsulfonyl)-1,2,3,4-tetrahydropyrrolo[1,2-a]pyrazin-1-yl)-N-(6-(piperidin-1-ylmethyl)-1,2,3,4-tetrahydronaphthalen-2-yl)acetamide] | 100 | 99.5
7 | CCC(C)NCc1ccc2c(c1)CCCC2NC(=O)CC1c2cccn2CCN1S(=O)(=O)c1cccc(C(F)(F)F)c1 (stereo not shown) [Example 131, N-[6-[(1-Methyl-propylamino)-methyl]-1,2,3,4-tetrahydro-naphthalen-1-yl]-2-[2-[[3-(trifluoromethyl)phenyl]sulfonyl]-1,2,3,4-tetrahydro-pyrrolo[1,2-a]pyrazin-1-yl]-acetamide] | 101 | 99.8
8 | COc1ccc2cc(S(=O)(=O)N3CCn4cccc4C3CC(=O)NC3Cc4ccc(CN5CCCCC5)cc4C3)ccc2c1 (stereo not shown) [Example 48, 2-(2-(6-methoxynaphthalen-2-ylsulfonyl)-1,2,3,4-tetrahydropyrrolo-[1,2-a]pyrazin-1-yl)-N-(5-(piperidin-1-ylmethyl)-2,3-dihydro-1H-inden-2-yl)-acetamide] | 105 | 99.6
9 | COc1cc(C)c(S(=O)(=O)N2CCn3cccc3C2COCC(=O)NC2CCN(c3ccc(C(F)(F)F)cn3)C2)c(C)c1 (stereo not shown) [Example 33, 2-[[2-[(4-Methoxy-2,6-dimethyl-phenyl)sulfonyl]-1,2,3,4-tetrahydro-pyrrolo[1,2-a]pyrazin-1-yl]-methoxy]-N-[1-[5-(trifluoromethyl)-pyridin-2-yl]-pyrrolidin-3-yl]-acetamide] | 58.1 | 15.7
10 | Cc1cccc(Cl)c1S(=O)(=O)N1CCn2cccc2C1COCC(=O)N1CCC(Oc2ccncc2)CC1 (stereo not shown) [Example 6, 2-((2-(2-Chloro-6-methylphenylsulfonyl)-1,2,3,4-tetrahydropyrrolo[1,2-a]pyrazin-1-yl)methoxy)-1-(4-(pyridin-4-yloxy)piperidin-1-yl)ethanone] | 100 | 99.6
11 | CNCc1ccc2c(c1)CCCC2NC(=O)CC1c2cccn2CCN1S(=O)(=O)c1cccc(C(F)(F)F)c1 (stereo not shown) [Example 135, N-[6-(Methylamino-methyl)-1,2,3,4-tetrahydro-naphthalen-1-yl]-2-[2-[[3-(trifluoromethyl)phenyl]sulfonyl]-1,2,3,4-tetrahydro-pyrrolo[1,2-a]pyrazin-1-yl]-acetamide] | 104 | 99.6
12 | COc1cc(C)c(S(=O)(=O)N2CCn3cccc3C2CC(=O)N2CCN(C3CCN(C)CC3)CC2)c(C)c1 (stereo not shown) [Example 1, 2-(2-(4-Methoxy-2,6-dimethylphenylsulfonyl)-1,2,3,4-tetrahydro-pyrrolo[1,2-a]pyrazin-1-yl)-1-(4-(1-methylpiperidin-4-yl)piperazin-1-yl)ethanone] | 100 | 94.8
13 | CNCc1ccc2c(c1)CCC(NC(=O)CC1c3cccn3CCN1S(=O)(=O)c1ccc(C)cc1)C2 (stereo not shown) [Example 140, N-[6-(Methylamino-methyl)-1,2,3,4-tetrahydro-naphthalen-2-yl]-2-[2-(p-tolylsulfonyl)-1,2,3,4-tetrahydro-pyrrolo[1,2-a]pyrazin-1-yl]-acetamide] | 102 | 96.1
14 | O=C(CC1c2cccn2CCN1S(=O)(=O)c1cccc(C(F)(F)F)c1)NC1CCCc2cc(CN3CCCC3)ccc21 (stereo not shown) [Example 86, N-[6-(Pyrrolidin-1-yl-methyl)-1,2,3,4-tetrahydro-naphthalen-1-yl]-2-[2-[[3-(trifluoromethyl)phenyl]sulfonyl]-1,2,3,4-tetrahydro-pyrrolo[1,2-a]pyrazin-1-yl]-acetamide] | 97.5 | 99.8
15 | CN(Cc1ccc2c(c1)CCC(NC(=O)CC1c3cccn3CCN1S(=O)(=O)c1cccc(C(F)(F)F)c1)C2)C(C)(C)C (stereo not shown) [Example 116, N-[6-[(tert-Butyl-methyl-amino)-methyl]-1,2,3,4-tetrahydro-naphthalen-2-yl]-2-[2-[[3-(trifluoromethyl)phenyl]sulfonyl]-1,2,3,4-tetrahydro-pyrrolo[1,2-a]pyrazin-1-yl]-acetamide] | 102 | 99.8
16 | Cc1ccc(S(=O)(=O)N2CCn3cccc3C2CC(=O)NC2CCCc3cc(CN4CCCC4)ccc32)cc1Cl (stereo not shown) [Example 91, 2-[2-[(3-Chloro-4-methyl-phenyl)sulfonyl]-1,2,3,4-tetrahydro-pyrrolo[1,2-a]pyrazin-1-yl]-N-[6-(pyrrolidin-1-yl-methyl)-1,2,3,4-tetrahydro-naphthalen-1-yl]-acetamide] | 99 | 99.9
17 | Cc1ccc(S(=O)(=O)N2CCn3cccc3C2CC(=O)NC2CCCc3cc(CNC(C)(C)C)ccc32)cc1 (stereo not shown) [Example 72, N-[6-[(tert-Butylamino)-methyl]-1,2,3,4-tetrahydro-naphthalen-1-yl]-2-[2-(p-tolylsulfonyl)-1,2,3,4-tetrahydro-pyrrolo[1,2-a]pyrazin-1-yl]-acetamide] | 101 | 99.9
